Results as given in patent publication US20240101576A1, “HETEROCYCLIC INHIBITORS OF EGFR AND/OR HER2, FOR USE IN THE TREATMENT OF CANCER” (Scorpion Therapeutics, Inc., priority 2020, published 2024).

Legend:
Assay type in all cases: cell-based
EGFR WT (Ba/F3 cells) = target: T1, EGFR WT (Ba/F3 cells) (Homo sapiens, UniProt P00533); experiment: Inhibitor activity on EGFR-dependent cell growth (CellTiter-Glo, 72 h), Ba/F3 EGFR WT; conditions: read-out: BaF3 WT IC50
T1 construct: expressed in transfected cells; host or cells: Ba/F3 (murine pro-B cells), retroviral transduction, puromycin selection, maintained with EGF
From the text: (§1) Example A. Inhibitor Activity on EGFR-Dependent Cell Growth
(§2) Cell lines are generated by transducing Ba/F3 cells with retroviruses containing vectors with EGFR WT, EGFR L858R, EGFR exon 19del, EGFR L858R/C797S, EGFR exon 20 NPG Ins D770_N771, EGFR exon 20 ASV Ins V769_D770, EGFR exon 20 SVD Ins D770_N771, or EGFR exon 20 FQEA Ins A763_V764 genes and a puromycin selection marker. Transduced cells are selected with puromycin for 7 days and are then be transferred into culture media without Interleukin 3 (IL3). EGFR WT cells are maintained with supplemental EGF. Surviving cells are confirmed to express EGFR by Western blot and maintained as a pool. The IC50 date were included in Table 6 and Table 7.
(§3) 1.1 Cells are harvested from flask into cell culture medium and the cell number counted.
(§4) 1.2 Cells are diluted with culture medium to the desired density and 40 μL of cell suspension is added into each well of 384-well cell culture plate and the seeding density is 800 (FQEA, exon 19del), 600 (WT, NPG, L858R/C797S), or 400 (ASV, SVD, L858R) cells/well.
(§5) 2 Compound Preparation and Treatment
(§6) 2.1 Test compounds are dissolved to 10 mM in a DMSO stock solution. 45 μL of stock solution is transferred to a 384 polypropylene plate (pp-plate). Perform 3-fold, 10-point dilution via transferring 15 μL compound into 30 μL DMSO using a TECAN (EVO200) liquid handler.
(§7) 2.2 Spin plates at room temperature at 1,000 RPM for 1 minute.
(§8) 2.3 Transfer 120 nL of diluted compound from compound source plate into the cell plate.
(§9) 2.4 After compound treatment for 72 hours, perform CTG detection for compound treatment plates as described in “Detection” section.
(§10) 3.1 Plates are removed from incubators and equilibrated at room temperature for 15 minutes.
(§11) 3.2 Thaw the CellTiter Glo reagents and allow to equilibrate to room temperature before the experiment.
(§12) 3.3 Add 40 μL of CellTiter-Glo reagent into each well (at 1:1 to culture medium). Then place the plates at room temperature for 30 min followed by reading on EnVision.
(§13) 4.1 Inhibition activity is calculated following the formula below:
(§14) % Inhibition=100×(LumHC−LumSample)/(LumHC−LumLC) • where HC is obtained from cells treated with 0.1% DMSO only; and LC is obtained from culture medium only.
(§15) 4.2 2. Calculate the IC50 by fitting the Curve using Xlfit (v5.3.1.3), equation 201.
(§16) Y=Bottom+(Top−Bottom)/(1+10^((Log IC50−X)*HillSlope))

[1] = target: T2, EGFR exon 20 ASV Ins V769_D770 (Ba/F3 cells) (Homo sapiens, UniProt P00533, INS769ASV); experiment: Inhibitor activity on EGFR-dependent cell growth (CellTiter-Glo, 72 h), Ba/F3 EGFR exon 20 ASV Ins; conditions: read-out: BaF3 ASV IC50
T2 construct: expressed in transfected cells; host or cells: Ba/F3 (murine pro-B cells), retroviral transduction, puromycin selection, IL3-independent pool
From the text: as §1, §2, §3, §4, §5, §6, §7, §8, §9, §10, §11, §12, §13, §14, §15, §16

[2] = target: T3, EGFR exon 20 SVD Ins D770_N771 (Ba/F3 cells) (Homo sapiens, UniProt P00533, INS770SVD); experiment: Inhibitor activity on EGFR-dependent cell growth (CellTiter-Glo, 72 h), Ba/F3 EGFR exon 20 SVD Ins; conditions: read-out: BaF3 SVD IC50
T3 construct: expressed in transfected cells; host or cells: Ba/F3 (murine pro-B cells), retroviral transduction, puromycin selection, IL3-independent pool
From the text: as §1, §2, §3, §4, §5, §6, §7, §8, §9, §10, §11, §12, §13, §14, §15, §16

[3] = target: T4, EGFR exon 20 FQEA Ins A763_V764 (Ba/F3 cells) (Homo sapiens, UniProt P00533, INS763FQEA); experiment: Inhibitor activity on EGFR-dependent cell growth (CellTiter-Glo, 72 h), Ba/F3 EGFR exon 20 FQEA Ins; conditions: read-out: BaF3 FQEA IC50
T4 construct: expressed in transfected cells; host or cells: Ba/F3 (murine pro-B cells), retroviral transduction, puromycin selection, IL3-independent pool
From the text: as §1, §2, §3, §4, §5, §6, §7, §8, §9, §10, §11, §12, §13, §14, §15, §16

T2 sequence (P00533 with tags, fused parts or gaps INS769ASV): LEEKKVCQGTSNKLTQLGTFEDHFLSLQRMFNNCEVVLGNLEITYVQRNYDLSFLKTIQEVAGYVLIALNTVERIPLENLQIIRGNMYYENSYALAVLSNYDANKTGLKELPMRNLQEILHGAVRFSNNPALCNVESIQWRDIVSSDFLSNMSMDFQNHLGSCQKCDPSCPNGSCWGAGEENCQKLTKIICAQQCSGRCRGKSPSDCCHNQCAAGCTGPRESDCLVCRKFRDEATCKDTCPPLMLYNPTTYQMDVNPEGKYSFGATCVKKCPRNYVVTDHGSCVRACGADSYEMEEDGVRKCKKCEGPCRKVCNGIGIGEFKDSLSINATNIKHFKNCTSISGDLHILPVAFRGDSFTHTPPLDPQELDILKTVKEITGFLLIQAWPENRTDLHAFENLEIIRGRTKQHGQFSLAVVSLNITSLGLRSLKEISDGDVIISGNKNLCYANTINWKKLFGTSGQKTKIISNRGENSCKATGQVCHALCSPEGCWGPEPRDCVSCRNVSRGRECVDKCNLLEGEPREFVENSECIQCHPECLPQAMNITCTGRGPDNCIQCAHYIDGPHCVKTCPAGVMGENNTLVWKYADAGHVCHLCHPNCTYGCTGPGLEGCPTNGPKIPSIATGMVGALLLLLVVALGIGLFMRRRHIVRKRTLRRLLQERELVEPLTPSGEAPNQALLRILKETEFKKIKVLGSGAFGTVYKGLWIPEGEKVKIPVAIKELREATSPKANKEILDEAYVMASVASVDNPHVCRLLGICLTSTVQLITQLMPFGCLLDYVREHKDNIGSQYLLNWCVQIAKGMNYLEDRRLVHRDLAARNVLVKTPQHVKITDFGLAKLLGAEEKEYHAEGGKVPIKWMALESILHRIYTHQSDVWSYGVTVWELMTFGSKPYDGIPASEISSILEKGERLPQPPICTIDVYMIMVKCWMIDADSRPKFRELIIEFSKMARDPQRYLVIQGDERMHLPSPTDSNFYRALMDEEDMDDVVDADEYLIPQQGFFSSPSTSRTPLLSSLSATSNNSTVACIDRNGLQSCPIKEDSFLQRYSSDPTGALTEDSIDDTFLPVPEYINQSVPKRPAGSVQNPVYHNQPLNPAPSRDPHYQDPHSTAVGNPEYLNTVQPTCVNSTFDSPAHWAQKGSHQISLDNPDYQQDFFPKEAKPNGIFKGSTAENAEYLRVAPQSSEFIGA
T4 sequence (P00533 with tags, fused parts or gaps INS763FQEA): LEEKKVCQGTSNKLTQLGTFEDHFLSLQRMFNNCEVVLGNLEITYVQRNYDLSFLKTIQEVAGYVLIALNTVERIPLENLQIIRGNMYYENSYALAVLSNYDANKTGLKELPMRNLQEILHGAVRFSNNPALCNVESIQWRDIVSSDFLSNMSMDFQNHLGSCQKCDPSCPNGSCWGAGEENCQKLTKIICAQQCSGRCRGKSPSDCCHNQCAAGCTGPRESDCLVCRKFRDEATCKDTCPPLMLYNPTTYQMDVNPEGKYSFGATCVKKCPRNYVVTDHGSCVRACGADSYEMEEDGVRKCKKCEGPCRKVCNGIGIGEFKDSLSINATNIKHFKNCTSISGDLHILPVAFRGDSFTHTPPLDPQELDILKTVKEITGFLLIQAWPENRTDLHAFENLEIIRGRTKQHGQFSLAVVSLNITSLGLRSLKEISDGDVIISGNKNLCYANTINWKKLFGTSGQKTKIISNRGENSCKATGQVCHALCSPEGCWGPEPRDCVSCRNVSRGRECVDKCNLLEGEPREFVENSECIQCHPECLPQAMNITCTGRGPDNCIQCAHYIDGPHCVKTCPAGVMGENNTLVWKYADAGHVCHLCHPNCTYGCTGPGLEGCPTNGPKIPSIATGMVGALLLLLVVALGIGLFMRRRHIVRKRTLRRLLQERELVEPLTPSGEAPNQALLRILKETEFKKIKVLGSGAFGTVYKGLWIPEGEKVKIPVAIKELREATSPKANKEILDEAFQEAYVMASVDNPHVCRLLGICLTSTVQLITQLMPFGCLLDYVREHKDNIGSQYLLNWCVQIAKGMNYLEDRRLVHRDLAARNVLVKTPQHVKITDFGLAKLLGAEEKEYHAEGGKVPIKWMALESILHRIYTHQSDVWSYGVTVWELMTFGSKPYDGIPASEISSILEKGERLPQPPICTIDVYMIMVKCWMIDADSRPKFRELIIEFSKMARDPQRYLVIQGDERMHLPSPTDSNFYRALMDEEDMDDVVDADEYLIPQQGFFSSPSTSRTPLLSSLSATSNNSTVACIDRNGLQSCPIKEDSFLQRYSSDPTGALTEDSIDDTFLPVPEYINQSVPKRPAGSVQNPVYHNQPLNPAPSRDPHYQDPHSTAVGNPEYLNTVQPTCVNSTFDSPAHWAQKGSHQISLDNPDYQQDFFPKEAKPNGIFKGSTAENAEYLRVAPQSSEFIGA
T1 sequence (P00533 25-1210): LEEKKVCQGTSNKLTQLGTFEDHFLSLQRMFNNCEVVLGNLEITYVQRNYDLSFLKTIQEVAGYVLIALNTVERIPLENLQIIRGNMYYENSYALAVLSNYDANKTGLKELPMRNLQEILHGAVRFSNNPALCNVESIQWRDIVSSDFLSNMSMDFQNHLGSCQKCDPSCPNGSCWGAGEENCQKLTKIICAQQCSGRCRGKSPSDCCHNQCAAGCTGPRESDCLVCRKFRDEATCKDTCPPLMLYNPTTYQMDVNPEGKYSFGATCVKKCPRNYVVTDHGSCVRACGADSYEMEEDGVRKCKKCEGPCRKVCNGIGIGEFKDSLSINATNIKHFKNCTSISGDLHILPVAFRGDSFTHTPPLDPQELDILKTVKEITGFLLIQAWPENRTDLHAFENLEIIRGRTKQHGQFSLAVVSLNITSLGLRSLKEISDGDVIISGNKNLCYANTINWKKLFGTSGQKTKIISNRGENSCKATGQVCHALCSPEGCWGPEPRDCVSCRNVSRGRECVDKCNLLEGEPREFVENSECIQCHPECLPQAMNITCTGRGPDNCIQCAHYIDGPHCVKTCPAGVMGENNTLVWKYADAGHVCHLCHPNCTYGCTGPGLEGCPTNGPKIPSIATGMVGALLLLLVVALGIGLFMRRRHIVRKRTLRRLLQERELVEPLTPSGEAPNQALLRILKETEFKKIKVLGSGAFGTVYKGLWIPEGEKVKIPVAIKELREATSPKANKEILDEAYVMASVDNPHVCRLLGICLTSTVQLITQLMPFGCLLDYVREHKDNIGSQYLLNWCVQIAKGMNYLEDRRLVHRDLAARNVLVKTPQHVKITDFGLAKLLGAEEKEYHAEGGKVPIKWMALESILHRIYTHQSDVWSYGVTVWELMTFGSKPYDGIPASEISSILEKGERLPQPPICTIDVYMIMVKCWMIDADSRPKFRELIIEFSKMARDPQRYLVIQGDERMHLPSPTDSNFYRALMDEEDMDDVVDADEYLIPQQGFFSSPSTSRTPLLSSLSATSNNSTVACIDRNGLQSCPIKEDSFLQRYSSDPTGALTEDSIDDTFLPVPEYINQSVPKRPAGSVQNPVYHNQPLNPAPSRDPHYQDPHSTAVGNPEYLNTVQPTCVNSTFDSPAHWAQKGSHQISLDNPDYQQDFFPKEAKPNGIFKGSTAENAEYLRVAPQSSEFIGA
T3 sequence (P00533 with tags, fused parts or gaps INS770SVD): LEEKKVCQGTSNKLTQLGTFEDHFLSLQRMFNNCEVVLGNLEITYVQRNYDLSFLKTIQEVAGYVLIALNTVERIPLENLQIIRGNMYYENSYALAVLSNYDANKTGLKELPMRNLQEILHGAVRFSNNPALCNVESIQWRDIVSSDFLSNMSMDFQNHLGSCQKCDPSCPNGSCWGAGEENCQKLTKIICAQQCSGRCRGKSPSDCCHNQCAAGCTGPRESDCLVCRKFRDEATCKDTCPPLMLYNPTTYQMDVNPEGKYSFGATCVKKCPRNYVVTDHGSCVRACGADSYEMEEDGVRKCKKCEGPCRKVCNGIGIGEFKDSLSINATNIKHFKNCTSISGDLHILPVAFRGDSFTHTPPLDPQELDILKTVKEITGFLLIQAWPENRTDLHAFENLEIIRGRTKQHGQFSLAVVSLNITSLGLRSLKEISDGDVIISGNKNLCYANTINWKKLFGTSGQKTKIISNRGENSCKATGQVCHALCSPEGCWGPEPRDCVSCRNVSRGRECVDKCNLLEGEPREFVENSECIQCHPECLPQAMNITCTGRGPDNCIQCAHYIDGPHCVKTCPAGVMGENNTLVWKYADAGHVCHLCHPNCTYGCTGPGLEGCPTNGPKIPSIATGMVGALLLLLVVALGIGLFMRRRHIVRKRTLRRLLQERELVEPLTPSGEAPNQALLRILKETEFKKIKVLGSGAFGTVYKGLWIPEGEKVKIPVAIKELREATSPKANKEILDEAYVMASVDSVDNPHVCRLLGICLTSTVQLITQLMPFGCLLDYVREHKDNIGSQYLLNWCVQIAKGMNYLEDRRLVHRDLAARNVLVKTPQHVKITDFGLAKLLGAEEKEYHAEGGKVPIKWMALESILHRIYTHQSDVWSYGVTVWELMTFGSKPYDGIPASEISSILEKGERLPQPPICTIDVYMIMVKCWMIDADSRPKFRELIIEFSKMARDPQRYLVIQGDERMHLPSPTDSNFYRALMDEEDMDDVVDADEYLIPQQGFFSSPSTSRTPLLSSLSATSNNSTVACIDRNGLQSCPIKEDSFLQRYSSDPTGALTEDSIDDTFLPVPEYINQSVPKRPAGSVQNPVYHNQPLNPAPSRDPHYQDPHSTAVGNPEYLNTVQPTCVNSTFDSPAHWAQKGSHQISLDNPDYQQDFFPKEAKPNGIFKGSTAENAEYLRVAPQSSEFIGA

| Compound | IC50 (EGFR WT (Ba/F3 cells)) | IC50 [1] | IC50 [2] | IC50 [3] |
| --- | --- | --- | --- | --- |
| COc1c(Cl)cccc1Nc1c(-c2ccnc3ccc(OC4CC4)nc23)[nH]c2c1C(=O)NC[C@H]2C [Compound 769, (R)-3-((3-chloro-2-methoxyphenyl)amino)-2-(6-cyclopropoxy-1,5-naphthyridin-4-yl)-7-methyl-1,5,6,7-tetrahydro-4H-pyrrolo[3,2-c]pyridin-4-one] | < 100 nM | < 100 nM | < 100 nM | < 100 nM |
| COc1c(Cl)cccc1Nc1c(-c2ccnc3ccc(OC4CC4)nc23)[nH]c2c1C(=O)NC[C@@H]2C [Compound 770, (S)-3-((3-chloro-2-methoxyphenyl)amino)-2-(6-cyclopropoxy-1,5-naphthyridin-4-yl)-7-methyl-1,5,6,7-tetrahydro-4H-pyrrolo[3,2-c]pyridin-4-one] | < 100 nM | < 100 nM | < 100 nM | < 100 nM |
| COc1c(Cl)cccc1Nc1c(-c2ccnc3cnc(OC4CC4)nc23)[nH]c2c1C(=O)NCC2 [Compound 771, 3-[(3-chloro-2-methoxyphenyl)amino]-2-{2-cyclopropoxypyrido[3,2-d]pyrimidin-8-yl}-1H,5H,6H,7H-pyrrolo[3,2-c]pyridin-4-one] | < 100 nM | < 100 nM | < 100 nM | < 100 nM |
| COc1cc2c(-c3[nH]c4c(c3Nc3cccc(Cl)c3OC)C(=O)NCC4)ccnc2cn1 [Compound 772, 3-[(3-chloro-2-methoxyphenyl)amino]-2-(6-methoxy-1,7-naphthyridin-4-yl)-1H,5H,6H,7H-pyrrolo[3,2-c]pyridin-4-one] | > 1000 nM | > 1000 nM | > 1000 nM | > 1000 nM |
| COc1ccc2nccc(-c3[nH]c4c(c3Nc3cccc(Cl)c3OC)C(=O)NCC4)c2c1 [Compound 773, 3-[(3-chloro-2-methoxyphenyl)amino]-2-(6-methoxyquinolin-4-yl)-1H,5H,6H,7H-pyrrolo[3,2-c]pyridin-4-one] | > 1000 nM | > 1000 nM | > 1000 nM | > 1000 nM |
| COc1c(Cl)cccc1Nc1c(-c2ccnc3cnc(C4CC4)nc23)[nH]c2c1C(=O)NCC2 [Compound 776, 3-[(3-chloro-2-methoxyphenyl)amino]-2-{2-cyclopropylpyrido[3,2-d]pyrimidin-8-yl}-1H,5H,6H,7H-pyrrolo[3,2-c]pyridin-4-one] | 100 to 1000 nM | < 100 nM | < 100 nM | < 100 nM |
| COc1c(Cl)cccc1Nc1c(-c2ccnc3ccc(OC4COC4)nc23)[nH]c2c1C(=O)NCC21CC1 [Compound 777, 3′-[(3-chloro-2-methoxyphenyl)amino]-2′-[6-(oxetan-3-yloxy)-1,5-naphthyridin-4-yl]-5′,6′-dihydro-1′H-spiro[cyclopropane-1,7′-pyrrolo[3,2-c]pyridin]-4′-one] | 100 to 1000 nM | < 100 nM | < 100 nM | < 100 nM |
| COc1c(F)cccc1Nc1c2c(n(C)c1-c1ccncc1F)CCNC2=O [Compound 789, 3-[(3-fluoro-2-methoxyphenyl)amino]-2-(3-fluoropyridin-4-yl)-1-methyl-5H,6H,7H-pyrrolo[3,2-c]pyridin-4-one] | > 1000 nM | > 1000 nM | > 1000 nM | > 1000 nM |
| CCc1c(F)cccc1Nc1c(-c2ccnc3cnc(OC)nc23)[nH]c2c1C(=O)NCC2 [Compound 791, 3-[(2-ethyl-3-fluorophenyl)amino]-2-[2-methoxypyrido[3,2-d]pyrimidin-8-yl]-1H,5H,6H,7H-pyrrolo[3,2-c]pyridin-4-one] | 100 to 1000 nM | < 100 nM | < 100 nM | 100 to 1000 nM |
| COc1ncc2nccc(-c3[nH]c4c(c3Nc3cc(F)cc(Cl)c3OC)C(=O)NCC4)c2n1 [Compound 792, 3-[(3-chloro-5-fluoro-2-methoxyphenyl)amino]-2-[2-methoxypyrido[3,2-d]pyrimidin-8-yl]-1H,5H,6H,7H-pyrrolo[3,2-c]pyridin-4-one] | 100 to 1000 nM | < 100 nM | < 100 nM | < 100 nM |
| COc1ncc2nccc(-c3[nH]c4c(c3Nc3cccc(F)c3CC(F)F)C(=O)NCC4)c2n1 [Compound 795, 3-{[2-(2,2-difluoroethyl)-3-fluorophenyl]amino}-2-{2-methoxypyrido[3,2-d]pyrimidin-8-yl}-1H,5H,6H,7H-pyrrolo[3,2-c]pyridin-4-one] | > 1000 nM | 100 to 1000 nM | 100 to 1000 nM | 100 to 1000 nM |
| COc1ncc2nccc(-c3[nH]c4c(c3Nc3cccc(Cl)c3)C(=O)NCC4)c2n1 [Compound 798, 3-[(3-chlorophenyl)amino]-2-[2-methoxypyrido[3,2-d]pyrimidin-8-yl]-1H,5H,6H,7H-pyrrolo[3,2-c]pyridin-4-one] | 100 to 1000 nM | < 100 nM | < 100 nM | < 100 nM |
| COc1ncc2nccc(-c3[nH]c4c(c3Nc3cccc(Cl)c3OC(F)(F)F)C(=O)NCC4)c2n1 [Compound 802, 3-[[3-chloro-2-(trifluoromethoxy)phenyl]amino]-2-[2-methoxypyrido[3,2-d]pyrimidin-8-yl]-1H,5H,6H,7H-pyrrolo[3,2-c]pyridin-4-one] | > 1000 nM | > 1000 nM | > 1000 nM | > 1000 nM |

The remaining lines, values ahead:

| IC50 (EGFR WT (Ba/F3 cells)) | IC50 [1] | IC50 [2] | IC50 [3] | Compound |
| --- | --- | --- | --- | --- |
| 100 to 1000 nM | < 100 nM | < 100 nM | < 100 nM | COc1ncc2nccc(-c3[nH]c4c(c3Nc3cccc(Cl)c3C)C(=O)NCC4)c2n1 [Compound 793, 3-[(3-chloro-2-methylphenyl)amino]-2-[2-methoxypyrido[3,2-d]pyrimidin-8-yl]-1H,5H,6H,7H-pyrrolo[3,2-c]pyridin-4-one] |
| 100 to 1000 nM | < 100 nM | < 100 nM | < 100 nM | COc1ncc2nccc(-c3[nH]c4c(c3Nc3cccc(Cl)c3F)C(=O)NCC4)c2n1 [Compound 799, 3-[(3-chloro-2-fluorophenyl)amino]-2-[2-methoxypyrido[3,2-d]pyrimidin-8-yl]-1H,5H,6H,7H-pyrrolo[3,2-c]pyridin-4-one] |
| 100 to 1000 nM | < 100 nM | < 100 nM | 100 to 1000 nM | CCc1c(Cl)cccc1Nc1c(-c2ccnc3cnc(OC)nc23)[nH]c2c1C(=O)NCC2 [Compound 800, 3-[(3-chloro-2-ethylphenyl)amino]-2-[2-methoxypyrido[3,2-d]pyrimidin-8-yl]-1H,5H,6H,7H-pyrrolo[3,2-c]pyridin-4-one] |
| > 1000 nM | 100 to 1000 nM | > 1000 nM | > 1000 nM | COc1ncc2nccc(-c3[nH]c4c(c3Nc3cccc(Cl)c3C(F)(F)F)C(=O)NCC4)c2n1 [Compound 801, 3-{[3-chloro-2-(trifluoromethyl)phenyl]amino}-2-{2-methoxypyrido[3,2-d]pyrimidin-8-yl}-1H,5H,6H,7H-pyrrolo[3,2-c]pyridin-4-one] |
| 100 to 1000 nM | < 100 nM | < 100 nM | < 100 nM | COc1ncc2nccc(-c3[nH]c4c(c3Nc3cccc(Cl)c3Cl)C(=O)NCC4)c2n1 [Compound 803, 3-[(2,3-dichlorophenyl)amino]-2-[2-methoxypyrido[3,2-d]pyrimidin-8-yl]-1H,5H,6H,7H-pyrrolo[3,2-c]pyridin-4-one] |
| 100 to 1000 nM | 100 to 1000 nM | < 100 nM | < 100 nM | COc1ncc2nccc(-c3[nH]c4c(c3Nc3cccc(C)c3F)C(=O)NCC4)c2n1 [Compound 804, 3-[(2-fluoro-3-methylphenyl)amino]-2-[2-methoxypyrido[3,2-d]pyrimidin-8-yl]-1H,5H,6H,7H-pyrrolo[3,2-c]pyridin-4-one] |
